Patent publication US20210283058A1, “METHOD FOR PRODUCING SUSTAINED-RELEASE DRUG, AND SUSTAINED-RELEASE DRUG” (GUNZE LIMITED, priority 2016, published 2021)

Experiment: Sustained release evaluated by weight loss curves from TG/DTA
Format: physicochemical
Conditions: conditions a): 30° C. to 40° C. at 5° C./min, then 40° C. for 30 minutes
Experimental: The sustained release of the sustained-release drug obtained in Example 4 was evaluated by the following method. Weight loss curves were drawn from TG curves obtained using a thermogravimetry/differential thermal analysis (TG/DTA) apparatus (PerkinElmer, STA 6000) under the following conditions: conditions a) the sustained-release drug is heated from 30° C. to 40° C. at 5° C./min, followed by keeping the drug isothermally at 40° C. for 30 minutes; and conditions b) the sustained-release drug is heated from 30° C. to 50° C. at 5° C./min, followed by keeping the drug isothermally at 50° C. for 30 minutes. FIG. 6(a) (conditions a) and FIG. 6(b) (conditions b) show the obtained weight loss curves.

With `CC(C)[C@@H]1CC[C@@H](C)C[C@H]1O` [L-menthol] the “release of medicinal ingredient (weight loss curve)” value was “significant volatility”.
